According to the NIST ThermoML archive (doi:10.1021/je3011979):

Experiments:
[1] = xn = mol fraction of the nth substance listed; conditions: 101 kPa, Liquid, Vibrating tube method
[2] = refractive index (Na D-line) (dimensionless); conditions: 101.33 kPa, Liquid, Standard Abbe refractometry
[3] = Liquid; for mass density: 101 kPa, Vibrating tube method; for vapor or sublimation pressure: Ebulliometric method (Recirculating still)
[4] = excess molar enthalpy (molar enthalpy of mixing); xn = mol fraction of the nth substance listed; conditions: 291.15 K, 101 kPa, Liquid, Calvet calorimetry

CCCCCCCC [octane] + CCCOC(C)=O
[1], x2 = 0
Conditions | mass density [kg/m3]
291.15 K | 704.1
298.15 K | 698.6
318.15 K | 682.2
328.15 K | 674.1

CCCCCCCCCC [decane] + CCCOC(C)=O
[1], x2 = 0
Conditions | mass density [kg/m3]
291.15 K | 731.2
298.15 K | 726.2
318.15 K | 710.9
328.15 K | 703.3

CCCCCCC [heptane] + CCCOC(C)=O
[1], x2 = 0
Conditions | mass density [kg/m3]
291.15 K | 685.3
298.15 K | 679.5
318.15 K | 662.1
328.15 K | 653.7

CCCCCCCC [octane]
Conditions | mass density, 291.15 K [kg/m3] | mass density, 298.15 K [kg/m3] | mass density, 318.15 K [kg/m3] | mass density, 328.15 K [kg/m3] | refractive index, 298.15 K | refractive index, 318.15 K | vapor or sublimation pressure, 398.85 K [kPa]
[2] | – | – | – | – | 1.3952 | 1.3855 | –
[3] | 704.1 | 698.6 | 682.2 | 674.1 | – | – | 101.32

CCCOC(C)=O [propyl ethanoate] + CCCCC
[1], x1 = 1
Conditions | mass density [kg/m3]
291.15 K | 889.6
298.15 K | 882.5

CCCCCCC [heptane]
Conditions | mass density, 291.15 K [kg/m3] | mass density, 298.15 K [kg/m3] | mass density, 318.15 K [kg/m3] | mass density, 328.15 K [kg/m3] | refractive index, 298.15 K | refractive index, 318.15 K | vapor or sublimation pressure, 371.55 K [kPa]
[2] | – | – | – | – | 1.3852 | 1.3748 | –
[3] | 685.3 | 679.5 | 662.1 | 653.7 | – | – | 101.32

CCCCC [pentane]
Conditions | mass density, 291.15 K [kg/m3] | mass density, 298.15 K [kg/m3] | refractive index, 298.15 K | vapor or sublimation pressure, 309.24 K [kPa]
[2] | – | – | 1.3545 | –
[3] | 628.2 | 621.4 | – | 101.32

CCCCCCCCCC [decane]
Conditions | mass density, 291.15 K [kg/m3] | mass density, 298.15 K [kg/m3] | mass density, 318.15 K [kg/m3] | mass density, 328.15 K [kg/m3] | refractive index, 298.15 K | refractive index, 318.15 K | vapor or sublimation pressure, 447.27 K [kPa]
[2] | – | – | – | – | 1.4096 | 1.4008 | –
[3] | 731.2 | 726.2 | 710.9 | 703.3 | – | – | 101.32

CCCCCCCCC [nonane]
Conditions | mass density, 291.15 K [kg/m3] | mass density, 298.15 K [kg/m3] | mass density, 318.15 K [kg/m3] | mass density, 328.15 K [kg/m3] | refractive index, 298.15 K | refractive index, 318.15 K | vapor or sublimation pressure, 423.94 K [kPa]
[2] | – | – | – | – | 1.4031 | 1.3938 | –
[3] | 719.2 | 713.9 | 698.1 | 690.2 | – | – | 101.32

CCCOC(C)=O [propyl ethanoate]
Conditions | mass density [kg/m3] | refractive index | vapor or sublimation pressure [kPa]
[2], 298.15 K | – | 1.3818 | –
[2], 318.15 K | – | 1.372 | –
[3], 291.15 K | 889.6 | – | –
[3], 298.15 K | 882.5 | – | –
[3], 318.15 K | 859.8 | – | –
[3], 318.35 K | – | – | 12.14
[3], 322.19 K | – | – | 14.43
[3], 325.87 K | – | – | 17.04
[3], 328.15 K | 848.3 | – | –
[3], 328.95 K | – | – | 19.43
[3], 331.59 K | – | – | 21.77
[3], 334.22 K | – | – | 24.29
[3], 336.6 K | – | – | 26.79
[3], 338.75 K | – | – | 29.12
[3], 340.72 K | – | – | 31.53
[3], 342.66 K | – | – | 33.96
[3], 344.52 K | – | – | 36.46
[3], 346.15 K | – | – | 38.78
[3], 347.73 K | – | – | 41.14
[3], 349.35 K | – | – | 43.69
[3], 350.81 K | – | – | 46.08
[3], 352.19 K | – | – | 48.41
[3], 353.57 K | – | – | 50.84
[3], 354.78 K | – | – | 53.11
[3], 356.03 K | – | – | 55.48
[3], 357.29 K | – | – | 57.96
[3], 358.41 K | – | – | 60.24
[3], 359.52 K | – | – | 62.59
[3], 360.63 K | – | – | 65
[3], 361.71 K | – | – | 67.41
[3], 362.73 K | – | – | 69.74
[3], 363.81 K | – | – | 72.28
[3], 364.84 K | – | – | 74.8
[3], 365.86 K | – | – | 77.35
[3], 366.81 K | – | – | 79.8
[3], 367.7 K | – | – | 82.11
[3], 368.62 K | – | – | 84.58
[3], 369.51 K | – | – | 87.01
[3], 370.41 K | – | – | 89.57
[3], 371.18 K | – | – | 91.8
[3], 371.99 K | – | – | 94.17
[3], 372.78 K | – | – | 96.55
[3], 373.55 K | – | – | 98.87
[3], 373.97 K | – | – | 100.18
[3], 374.34 K | – | – | 101.32
[3], 374.52 K | – | – | 101.32
[3], 375.1 K | – | – | 103.76
[3], 375.78 K | – | – | 106.19
[3], 376.51 K | – | – | 108.56
[3], 377.29 K | – | – | 111.14
[3], 377.98 K | – | – | 113.47
[3], 378.69 K | – | – | 115.96
[3], 379.36 K | – | – | 118.3
[3], 380.04 K | – | – | 120.71
[3], 380.74 K | – | – | 123.19
[3], 381.41 K | – | – | 125.61
[3], 382.06 K | – | – | 128.01
[3], 382.71 K | – | – | 130.42
[3], 383.34 K | – | – | 132.85
[3], 384.01 K | – | – | 135.42
[3], 384.55 K | – | – | 137.67
[3], 385.18 K | – | – | 140.04
[3], 385.79 K | – | – | 142.47
[3], 386.36 K | – | – | 144.8
[3], 386.9 K | – | – | 147.09
[3], 387.49 K | – | – | 149.51
[3], 388.06 K | – | – | 151.96
[3], 388.63 K | – | – | 154.37
[3], 389.16 K | – | – | 156.68
[3], 389.68 K | – | – | 158.99
[3], 390.18 K | – | – | 161.23
[3], 390.68 K | – | – | 163.46
[3], 391.22 K | – | – | 165.89
[3], 391.7 K | – | – | 168.13
[3], 392.24 K | – | – | 170.62
[3], 392.73 K | – | – | 172.98
[3], 393.23 K | – | – | 175.35
[3], 393.71 K | – | – | 177.64
[3], 394.16 K | – | – | 180.01
[3], 394.66 K | – | – | 182.44
[3], 395.17 K | – | – | 185.03
[3], 395.67 K | – | – | 187.59
[3], 396.16 K | – | – | 190.1
[3], 396.69 K | – | – | 192.76

CCCCCCCCC [nonane] + CCCOC(C)=O
[1], x2 = 0
Conditions | mass density [kg/m3]
291.15 K | 719.2
298.15 K | 713.9
318.15 K | 698.1
328.15 K | 690.2

CCCCCC [hexane]
Conditions | mass density, 291.15 K [kg/m3] | mass density, 298.15 K [kg/m3] | mass density, 318.15 K [kg/m3] | mass density, 328.15 K [kg/m3] | refractive index, 298.15 K | refractive index, 318.15 K | vapor or sublimation pressure, 341.89 K [kPa]
[2] | – | – | – | – | 1.3723 | 1.3615 | –
[3] | 661.2 | 654.8 | 636.7 | 627.2 | – | – | 101.32

CCCCC [pentane] + CCCOC(C)=O
mass density [kg/m3], [1]
Conditions | 291.15 K | 298.15 K
x2 = 0 | 628.2 | 621.4
x2 = 0.0101 | – | 623.7
x2 = 0.0121 | 631.2 | –
x2 = 0.0346 | – | 629.8
x2 = 0.0427 | 638.8 | –
x2 = 0.0754 | – | 640
x2 = 0.078 | 647.7 | –
x2 = 0.1377 | – | 655.9
x2 = 0.1417 | 664 | –
x2 = 0.1977 | – | 671.4
x2 = 0.2048 | 680.3 | –
x2 = 0.2734 | 698.2 | –
x2 = 0.283 | – | 693.6
x2 = 0.3338 | 714.1 | –
x2 = 0.3439 | – | 709.7
x2 = 0.3934 | 729.8 | –
x2 = 0.4072 | – | 726.4
x2 = 0.4636 | 748.4 | –
x2 = 0.4881 | – | 747.7
x2 = 0.5218 | – | 756.5
x2 = 0.5224 | 763.9 | –
x2 = 0.5876 | 781.1 | –
x2 = 0.5968 | – | 776.4
x2 = 0.6565 | 799.3 | 792.1
x2 = 0.7085 | – | 805.9
x2 = 0.7136 | 814.4 | –
x2 = 0.7697 | 829.2 | –
x2 = 0.8277 | 844.6 | –
x2 = 0.8437 | – | 841.6
x2 = 0.8911 | 861.3 | –
x2 = 0.9205 | – | 861.8
x2 = 0.923 | 869.7 | –

[4]
Conditions | excess molar enthalpy [kcal/mol]
x2 = 0.0667 | 0.0535
x2 = 0.1334 | 0.097
x2 = 0.2047 | 0.147
x2 = 0.2753 | 0.186
x2 = 0.3414 | 0.2185
x2 = 0.4028 | 0.2361
x2 = 0.461 | 0.2452
x2 = 0.5088 | 0.2464
x2 = 0.5257 | 0.245
x2 = 0.5824 | 0.2326
x2 = 0.6434 | 0.2141
x2 = 0.7089 | 0.188
x2 = 0.7812 | 0.152
x2 = 0.8537 | 0.107
x2 = 0.9242 | 0.0595

CCCCCC [hexane] + CCCOC(C)=O
[1], x2 = 0
Conditions | mass density [kg/m3]
291.15 K | 661.2
298.15 K | 654.8
318.15 K | 636.7
328.15 K | 627.2
